Measured values reported in publication PMC8486872, “A rational blueprint for the design of chemically-controlled protein switches” (Nature Communications, 2021).
Where “and” joins values, the source holds several entries; their conditions need not be identical. Identical values can stand only once.

Tests used:
HEK293T cells [1] = assay: CCK8 cell viability assay; assay type: cell-based; conditions: for Normalization of Supplementary Figure5a (CCK8 absorbance): in % (unit assumed); for Absorbance at 450nm (CCK8 colormetric assay): Suppl Fig 5a
Experimental: A cell counting kit-8 (CCK-8) assay (Sigma) was used to measure the cytotoxicity of three drugs on HEK293T cells. 10,000 cells per well were pre-seeded into 96 well plates in 100 µl complete culture medium. The culture medium was changed into drug containing medium with drug concentrations of 0 µM (0.1% DMSO),1 µM, 5 µM and 10 µM. After 24 h drug incubation, 10 µl WST-8 solution was added to each well for 4 h incubation under standard conditions. The absorbance at 450 nm was determined by a multiplate reader (Tecan Infinite 500).
Supplementary Figure 5: Drug toxicity assessment. a) Drug effects on cell viability of HEK293T cells. HEK293T cells were added different concentrations of drugs for an incubation period of 24 hours. WST-8 was added 24 h after drug incubation and the absorbance at 450 nm was measured 4 h later. […]

HEK293T cells [2] = assay: Effect of drugs on protein production (Luciferase reporter, constitutive Gal4-Rel65); assay type: cell-based; conditions: Suppl Fig 5b
Experimental: Supplementary Figure 5: Drug toxicity assessment. […]
HEK293T cells. The HEK293T cells were transfected with the Luciferase reporter and constitutive Gal4-Rel65 expression plasmid (pCMV-Gal4-Rel65-pA). Drugs were added to the transfected cells 24 hours post-transfection, quantification of luciferase activity 24 hours after the addition of the drugs. Each bar represents the mean of three biological replicates ± s.d overlaid with a scatter dot plot of the original […]

[3] = test system: SEAP expression in HEK293T cells; assay: Background signal of SEAP reporter and single-construct controls; assay type: cell-based
Experimental: Supplementary Figure 7: Dose-dependence and reversibility characterization of CDHs in CDH- […]
transfected with SEAP reporter S132 and treated with 1 µM Drugs 12 hours post transfection.
Quantification of SEAP was performed 24 hours after drug treatment. b) Drug specificity of CDH-TFs. […]
Background signal of SEAP reporter in the absence of the CDH-GEMS system. HEK293T cells were transfected with pLS566 SEAP reporter plasmids and treated with drugs. Quantification of SEAP was performed 24 hours post drug treatment. f) SEAP activity upon transfecting single or paired […]
Quantification of SEAP activity of three CDHs with DMSO (dark color), specific (light color) and unspecific drug treatment (gray). […]
(culture medium) in panels of b, c, f and g were collected every 12 hours. Values were normalized to zero based on the SEAP expression at time 0. a, b, e, f, g) The bar charts show the mean ± s.d. of n = 3 biologically independent samples overlaid with a scatter dot plot of the original data points.

[4] = test system: JAK/STAT pathway SEAP expression in HEK293T cells; assay: AIR-GEMS ON-switch SEAP assay; conditions: Fig S11a; 100 nM Drug-2
Experimental: We fused the AIR components in the ectodomains of the GEMS and measured SEAP activity as a reporter for drug-triggered activation.
HEK293T cells were maintained in DMEM medium with 10% FBS (Gibco) and Pen/Strep (Thermo Fisher). Cells were maintained and split every two days at around 80% confluence. HEK293T cells were seeded 24 h before transfection, and transfected with the lipofectamine 3000 kit (Thermo Fisher). Plasmids were cotransfected according to the Table S7. For the drug OFF-switch experiments, drugs were added 12 h post transfection and incubated with cells for 24 h before the SEAP detection assay.
Representative data of cellular assays are presented as individual values and mean values (bars). n = 3 refers to biological replicates. All IC50/EC50 values of cellular assays (CDH-TF, CDH-GEMS, AIR-TF and AIR-GEMS) reported were calculated using four-parameter nonlinear regression ± s.d.
Bcl2 mutants were cloned into the AIR-GEMS

[5] = molecular target: T1, LD3 in the presence of Drug-1 (Homo sapiens, UniProt Q07817, DEL45-84/F105I/R102E); assay: SPR pre-screening and competition of Drug-1 resistant Bcl-XL mutants binding LD3; conditions: 5 µM receptor mixed with 10 µM Drug-1
T1 construct: 6xHis (N); made in house; host or cells: E. coli BL21(DE3)
T1 sequence (Q07817 with tags, fused parts or gaps DEL45-84/R102E/F105I limits assumed): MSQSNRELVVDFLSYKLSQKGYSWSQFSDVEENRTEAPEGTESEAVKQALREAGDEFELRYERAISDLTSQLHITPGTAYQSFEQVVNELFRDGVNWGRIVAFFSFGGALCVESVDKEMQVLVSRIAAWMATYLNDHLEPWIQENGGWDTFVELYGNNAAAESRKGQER
Experimental: Supplementary Figure 10: Biophysical and cellular characterization of designed Drug-1- […]
a) Pre-screening of Drug-1 resistant Bcl-XL mutants by SPR. 5 µM of Bcl-XL and five mutants were mixed with 10 µM of Drug-1 and injected over the LD3 immobilized chip to analyse the binding response. […]
dilutions of Drug-1 were pre-mixed with 4 µM LD3 and injected over iBcl-XL_v3 immobilized chip to collect the response. c) Dissociation constant measurement of iBcl-XL_v3 and LD3. Sensorgrams are in black dashed curves and the fitted curves in solid red lines. Kd was using a 1:1 binding model. d) […]
normalized to the positive control (DMSO group). […]

mdm2 = mdm2 (Homo sapiens, UniProt Q00987); design: method as in PMID 26768531; conditions: read-out: reported binding affinity to mdm2; cited from earlier work
mdm2, sequence (Q00987 26-109 limits assumed): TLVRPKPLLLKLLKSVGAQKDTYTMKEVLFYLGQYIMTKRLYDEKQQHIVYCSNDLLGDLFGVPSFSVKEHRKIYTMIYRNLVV

Row | Compound | Normalization of Supplementary Figure5a (CCK8 absorbance) (HEK293T cells [1]; 1 µM) | Normalization of Supplementary Figure5a (CCK8 absorbance) (HEK293T cells [1]; 5 µM) | Normalization of Supplementary Figure5a (CCK8 absorbance) (HEK293T cells [1]; 10 µM) | Absorbance at 450nm (CCK8 colormetric assay) (HEK293T cells [1]; 1 µM) | Absorbance at 450nm (CCK8 colormetric assay) (HEK293T cells [1]; 5 µM) | Absorbance at 450nm (CCK8 colormetric assay) (HEK293T cells [1]; 10 µM) | Luciferase production (luminescence) (HEK293T cells [2]; 1 µM) | Luciferase production (luminescence) (HEK293T cells [2]; 5 µM) | Luciferase production (luminescence) (HEK293T cells [2]; 10 µM) | also measured
1 | CN(C)CC#Cc1ccc(OCCCc2sc(N3CCc4cccc(C(=O)Nc5nc6ccccc6s5)c4C3)nc2C(=O)O)c(F)c1 [Drug1] | 107.788 and 102.052 and 84.2322 | 106.001 and 108.808 and 85.1912 | 101.677 and 96.2978 and 81.5907 | 1.2364 and 1.1706 and 0.9662 | 1.2159 and 1.2481 and 0.9772 | 1.1663 and 1.1046 and 0.9359 | 298584 and 267400 and 264776 | 259902 and 193284 and 231257 | 268448 and 250247 and 248473 | 
2 | CC1(C)CCC(CN2CCN(c3ccc(C(=O)NS(=O)(=O)c4ccc(NCC5CCOCC5)c([N+](=O)[O-])c4)c(Oc4cnc5[nH]ccc5c4)c3)CC2)=C(c2ccc(Cl)cc2)C1 [Drug2] | 91.0979 and 90.3939 and 94.3325 | 94.2973 and 98.0561 and 96.7732 | 95.7875 and 97.7823 and 95.6546 | 2.3291 and 2.3111 and 2.4118 | 2.4109 and 2.507 and 2.4742 | 2.449 and 2.5 and 2.4456 | 239858 and 221880 and 230049 | 235551 and 211876 and 214947 | 249510 and 226877 and 232289 | 
3 | Bcl2 |  |  |  |  |  |  |  |  |  | Reporter signal, single constructs vs pair ([3]; Suppl Fig 7f, CDH2): 12.2479 and 10.8467 and 9.94; Reporter signal, single constructs vs pair ([3]; Suppl Fig 7g (so in the source), CDH2): 12.2479 and 10.8467 and 9.94; Reporter signal, 100 nM Drug-2 [4]: 0.7857 and 0.8309 and 0.7087
4 | Bcl-XL: wildtype drug receptor protein of CDH-1 |  |  |  |  |  |  |  |  |  | inhibition by Drug-1 of binding to LD3 immobilized chip [5]: complete inhibition; Reporter signal, single constructs vs pair ([3]; Suppl Fig 7f, CDH1): 17.1033 and 16.0472 and 16.2645; Reporter signal, single constructs vs pair ([3]; Suppl Fig 7g (so in the source), CDH1): 17.1033 and 16.0472 and 16.2645
5 | stapled p53 peptide: stapled p53 peptide (PDB 5afg) used as input peptide motif (LTFAEYWAQLAS) |  |  |  |  |  |  |  |  |  | Kd (mdm2): 0.012 ± 0.003 µM
